This is an account of results in US9409952B2, “Peptide-compound cyclization method” (Chugai Seiyaku Kabushiki Kaisha, priority 2011, dated 2016).

Read-outs that look alike come from different tables or passages of the source. Starred links: 1 amine or outer side, 2 acyl side, 3 side chain; linkers in the order of their positions; H or OH if unused. Positions of bridges follow the written chain, without caps; N, C: chain ends. Non-standard residues stand in square brackets, D forms with d. Residues, ends and D or L forms follow the SMILES beside them. *: point of attachment. NMePhe(3-Cl) = CN[C@@H](Cc1cccc(Cl)c1)C(=O)O; NMeF = CN[C@@H](Cc1ccccc1)C(=O)O; NMeβAla = CN(CCC(=O)[*:2])[*:1]; NMeL = CN[C@@H](CC(C)C)C(=O)O; NMeA = CN[C@@H](C)C(=O)O; Piperidide = C1CCN(*)CC1; dNMeA = CN[C@H](C)C(=O)O; Sar = CNCC(=O)O

The nature of data set [1]: Metabolic stability in human hepatic microsome. It is filed as in vitro ADME. The settings on record: microsomes.
A short description of data set [2]: PAMPA (parallel artificial membrane permeability assay). It is filed as in vitro ADME. The following applies: PAMPA. Summed up:
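Artificial membrane was 10% (w/v) egg lecithin plus 0.5% (w/v) cholesterol in dodecane on a PVDF filter. A 10 mM DMSO stock was added at 0.5% (v/v) to donor buffer (50 mM MOPSO, pH 6.5, 5.0% glycocholic acid). After 18 h at 37 °C, LC/MS or LC/UV gave donor and acceptor levels for Pe.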
A general note: PAMPA measures passive passage across an artificial lipid membrane.

Setting [3] is: pH 7.4, human hepatic microsome, NADPH(+), read-out: CL NADPH(+).
[4] abbreviates: membrane permeation rate (Pe), 50 mM MOPSO buffer pH 6.5 with 5.0% glycocholic acid, 37° C., 18 hours, read-out: iPAMPA Pe.

Regarding `CC[C@H](C)[C@H](NC(=O)[C@H](Cc1ccccc1)N(C)C(=O)[C@@H](NC(=O)[C@H](C)NC(=O)[C@H](CC(C)C)N(C)C(=O)[C@@H]1CC(=O)N(C)[C@@H](C)C(=O)N(C)[C@@H](CC(C)C)C(=O)N(C)[C@@H](Cc2ccccc2)C(=O)N[C@@H]([C@@H](C)O)C(=O)N(C)[C@@H](CC(C)C)C(=O)N(C)[C@@H](CC(C)C)C(=O)N[C@@H]([C@@H](C)CC)C(=O)N(C)[C@@H](CC(C)C)C(=O)N1)C(C)C)C(=O)N1CCCCC1` [DP-938] ([NMeA][NMeL][NMeF]T[NMeL][NMeL]I[NMeL]D[NMeL]AV[NMeF]I-Piperidide; lactam N-9), the microsomal CLint at 1 uM in data set [1] (setting [3]) is 8 µL/min/mg. In data set [2] (setting [4]), the Papp at 18 hours, 50 µM was found to be 0.1 ×10⁻⁶ cm/s.
Take `CC[C@H](C)[C@H](NC(=O)[C@H](CC(C)C)N(C)C(=O)CN(C)C(=O)[C@@H](NC(=O)[C@@H]1CC(=O)N[C@H](C(C)C)C(=O)N[C@@H](C)C(=O)N[C@@H]([C@@H](C)O)C(=O)N(C)[C@@H](C)C(=O)N[C@@H](Cc2ccccc2)C(=O)N(C)[C@@H](CC(C)C)C(=O)N(C)[C@@H](Cc2ccccc2)C(=O)N(C)[C@@H](CC(C)C)C(=O)N1)C(C)C)C(=O)N1CCCCC1` [DP-939] ([dV]AT[NMeA]F[NMeL][NMeF][NMeL]DV[Sar][NMeL]I-Piperidide; lactam N-9): the microsomal CLint at 1 uM in data set [1] (setting [3]) came to 8 µL/min/mg. The Papp at 18 hours, 50 µM in data set [2] (setting [4]) came out at 3.6 ×10⁻⁶ cm/s.
`CC[C@H](C)[C@H](NC(=O)[C@@H](NC(=O)[C@H](CC(C)C)N(C)C(=O)[C@@H](NC(=O)[C@@H]1CC(=O)N(C)[C@@H](C)C(=O)N[C@@H](CC(C)C)C(=O)N(C)[C@@H](Cc2ccccc2)C(=O)N[C@@H](CC(C)C)C(=O)N(C)CC(=O)N(C)[C@@H](CC(C)C)C(=O)N[C@@H]([C@@H](C)CC)C(=O)N(C)[C@@H](CC(C)C)C(=O)N1)[C@@H](C)O)C(C)C)C(=O)N1CCCCC1` [DP-940] ([NMeA]L[NMeF]L[Sar][NMeL]I[NMeL]DT[NMeL]VI-Piperidide; lactam N-9): the microsomal CLint at 1 uM in data set [1] (setting [3]) turned out to be 37 µL/min/mg. The Papp at 18 hours, 50 µM in data set [2] (setting [4]) amounted to 0.14 ×10⁻⁶ cm/s.
Taken in the same sequence, the figures for `CC[C@H](C)[C@H](NC(=O)[C@H](CC(C)C)N(C)C(=O)[C@@H](NC(=O)[C@H](Cc1ccccc1)N(C)C(=O)[C@@H]1CC(=O)N(C)CCC(=O)N(C)[C@@H](Cc2cccc(Cl)c2)C(=O)N[C@@H](CC(C)C)C(=O)N[C@@H]([C@@H](C)O)C(=O)N[C@@H](CC(C)C)C(=O)N[C@@H]([C@@H](C)CC)C(=O)N(C)[C@@H](CC(C)C)C(=O)N(C)[C@@H](CC(C)C)C(=O)N1)[C@@H](C)CC)C(=O)N1CCCCC1` [DP-941] ([NMeβAla][NMePhe(3-Cl)]LTLI[NMeL][NMeL]D[NMeF]I[NMeL]I-Piperidide; lactam N-9) were 49 µL/min/mg and 0.1 ×10⁻⁶ cm/s.
Taken in the same sequence, the figures for `CC[C@H](C)[C@H](NC(=O)[C@H](C)N(C)C(=O)[C@@H]1CCCN1C(=O)[C@@H](NC(=O)[C@@H]1CC(=O)N(C)[C@H](C)C(=O)N(C)[C@@H](CC(C)C)C(=O)N(C)[C@@H](Cc2ccccc2)C(=O)N[C@@H](CC(C)C)C(=O)N(C)[C@@H](Cc2cccc(Cl)c2)C(=O)N[C@@H]([C@@H](C)O)C(=O)N(C)[C@@H](Cc2ccccc2)C(=O)N[C@@H](CC(C)C)C(=O)N1)[C@@H](C)CC)C(=O)N1CCCCC1` [DP-942] ([dNMeA][NMeL][NMeF]L[NMePhe(3-Cl)]T[NMeF]LDIP[NMeA]I-Piperidide; lactam N-9) were 23 µL/min/mg and 0.1 ×10⁻⁶ cm/s.
Turning to `CC[C@H](C)[C@H](NC(=O)[C@H](C)N(C)C(=O)[C@H](CC(C)C)N(C)C(=O)[C@@H](NC(=O)[C@@H]1CC(=O)N(C)[C@@H](C)C(=O)N[C@@H]([C@@H](C)O)C(=O)N(C)[C@@H](Cc2ccccc2)C(=O)N[C@@H](C(C)C)C(=O)N2CCC[C@H]2C(=O)N(C)[C@@H](Cc2ccccc2)C(=O)N[C@@H](CC(C)C)C(=O)N(C)[C@@H](Cc2ccccc2)C(=O)N1)C(C)C)C(=O)N1CCCCC1` [DP-943] ([NMeA]T[NMeF]VP[NMeF]L[NMeF]DV[NMeL][NMeA]I-Piperidide; lactam N-9), the microsomal CLint at 1 uM in data set [1] (human, pH 7.4, CL NADPH(+)) was 7 µL/min/mg. The compound also gave a Papp at 18 hours, 50 µM in data set [2] (pH 6.5) of 0.1 ×10⁻⁶ cm/s.
As to `CC[C@H](C)[C@H](NC(=O)[C@H](CC(C)C)N(C)C(=O)[C@H](CC(C)C)NC(=O)[C@H](C)N(C)C(=O)[C@@H]1CC(=O)N[C@H](C(C)C)C(=O)N(C)[C@@H](CC(C)C)C(=O)N(C)[C@@H](CC(C)C)C(=O)N[C@@H](C)C(=O)N[C@@H](Cc2ccccc2)C(=O)N[C@@H]([C@@H](C)O)C(=O)N[C@@H](CC(C)C)C(=O)N(C)[C@@H](Cc2ccccc2)C(=O)N(C)[C@@H](CC(C)C)C(=O)N1)C(=O)N1CCCCC1` [DP-944] ([dV][NMeL][NMeL]AFTL[NMeF][NMeL]D[NMeA]L[NMeL]I-Piperidide; lactam N-10), in data set [1] (setting [3]), the microsomal CLint at 1 uM is 20 µL/min/mg. Further, in data set [2] (setting [4]), the Papp at 18 hours, 50 µM was determined as 0.1 ×10⁻⁶ cm/s.
For `CC[C@H](C)[C@H](NC(=O)[C@H](CC(C)C)N(C)C(=O)[C@H](CC(C)C)NC(=O)[C@H](C)N(C)C(=O)[C@@H]1CC(=O)N[C@@H](C)C(=O)N(C)[C@@H](CC(C)C)C(=O)N[C@@H](C(C)C)C(=O)N[C@@H](C)C(=O)N(C)[C@@H](CC(C)C)C(=O)N(C)[C@@H](CC(C)C)C(=O)N(C)[C@@H](Cc2ccccc2)C(=O)N[C@@H]([C@@H](C)O)C(=O)N(C)[C@@H](Cc2ccccc2)C(=O)N1)C(=O)N1CCCCC1` [DP-945] (A[NMeL]VA[NMeL][NMeL][NMeF]T[NMeF]D[NMeA]L[NMeL]I-Piperidide; lactam N-10) the same measures were 28 µL/min/mg and 0.1 ×10⁻⁶ cm/s.
For `CC[C@H](C)[C@@H]1NC(=O)[C@H](CC(C)C)N(C)C(=O)[C@H](Cc2cccc(Cl)c2)N(C)C(=O)[C@H](Cc2ccccc2)NC(=O)[C@H](CC(C)C)N(C)C(=O)[C@H](C)N(C)C(=O)[C@H]([C@@H](C)O)NC(=O)[C@H](C)N(C)C(=O)C[C@@H](C(=O)N[C@H](C(=O)N(C)[C@@H](CC(C)C)C(=O)N(C)[C@@H](Cc2ccccc2)C(=O)N[C@H](C(=O)N2CCCCC2)[C@@H](C)CC)[C@@H](C)CC)NC(=O)[C@H](C(C)C)NC1=O` [DP-946] ([NMeA]T[NMeA][NMeL]F[NMePhe(3-Cl)][NMeL]IVDI[NMeL][NMeF]I-Piperidide; lactam N-10), the microsomal CLint at 1 uM in data set [1] (setting [3]) worked out at 15 µL/min/mg. The Papp at 18 hours, 50 µM in data set [2] (setting [4]) was determined as 0.1 ×10⁻⁶ cm/s.
On to `CC[C@H](C)[C@@H]1NC(=O)[C@H](CC(C)C)N(C)C(=O)[C@H](Cc2ccccc2)N(C)C(=O)[C@H](Cc2ccccc2)NC(=O)[C@H](C)N(C)C(=O)[C@H](CC(C)C)N(C)C(=O)[C@@H](C(C)C)NC(=O)C[C@@H](C(=O)N(C)[C@@H](CC(C)C)C(=O)N[C@H](C(=O)N(C)[C@@H](C)C(=O)N[C@H](C(=O)N2CCCCC2)[C@@H](C)CC)C(C)C)NC(=O)[C@H](CC(C)C)NC(=O)[C@H]([C@@H](C)O)NC1=O` [DP-947] ([dV][NMeL][NMeA]F[NMeF][NMeL]ITLD[NMeL]V[NMeA]I-Piperidide; lactam N-10), for which the microsomal CLint at 1 uM in data set [1] (setting [3]) worked out at 14 µL/min/mg. Also, in data set [2] (setting [4]), the Papp at 18 hours, 50 µM worked out at 0.1 ×10⁻⁶ cm/s.
Taken in the same sequence, the figures for `CC[C@H](C)[C@H](NC(=O)[C@H](CC(C)C)N(C)C(=O)[C@@H]1CCCN1C(=O)[C@H](Cc1ccccc1)N(C)C(=O)[C@@H]1CC(=O)N(C)CCC(=O)N[C@@H](Cc2ccccc2)C(=O)N(C)[C@@H](CC(C)C)C(=O)N[C@@H]([C@@H](C)O)C(=O)N[C@@H](C(C)C)C(=O)NCC(=O)N(C)[C@@H](CC(C)C)C(=O)N[C@@H](CC(C)C)C(=O)N(C)[C@@H](CC(C)C)C(=O)N1)C(=O)N1CCCCC1` [DP-948] ([NMeβAla]F[NMeL]TVG[NMeL]L[NMeL]D[NMeF]P[NMeL]I-Piperidide; lactam N-10) were 20 µL/min/mg and 0.78 ×10⁻⁶ cm/s.
